Data from ChEMBL document CHEMBL4038308, “Lipophosphonoxins II: Design, Synthesis, and Properties of Novel Broad Spectrum Antibacterial Agents” (J Med Chem, 2017).
≈ marks a conversion by molar mass, not a printed value. Blank lines part the entries; values can stand above or below the molecule they belong to. Calls of active or inactive are those of the source. No cut-off for these calls is given here.

Tests used:
Escherichia coli [1] = assay: Antibacterial activity against Escherichia coli CCM 3954 after 24 hrs by microdilution method; type: functional; conditions: CCM 3954, 24 h
Pseudomonas aeruginosa [2] = assay: Antibacterial activity against Pseudomonas aeruginosa CCM 3955 after 24 hrs by microdilution method; type: functional; conditions: CCM 3955, 24 h
Enterococcus faecalis = assay: Antibacterial activity against Enterococcus faecalis CCM 4224 after 24 hrs by microdilution method; type: functional; conditions: CCM 4224, 24 h
Staphylococcus aureus [3] = assay: Antibacterial activity against Staphylococcus aureus CCM 4223 after 24 hrs by microdilution method; type: functional; conditions: CCM 4223, 24 h
Bacillus subtilis [4] = assay: Antibacterial activity against Bacillus subtilis after 24 hrs by microdilution method; type: functional
Streptococcus agalactiae = assay: Antibacterial activity against Streptococcus agalactiae after 24 hrs by microdilution method; type: functional
Escherichia coli [5] = assay: Antibacterial activity against Escherichia coli 16702 after 24 hrs by microdilution method; type: functional; conditions: Escherichia coli, 16702, 24 h
Pseudomonas aeruginosa [6] = assay: Antibacterial activity against Pseudomonas aeruginosa 16575 after 24 hrs by microdilution method; type: functional; conditions: Pseudomonas aeruginosa, 16575, 24 h
Staphylococcus aureus [7] = assay: Antibacterial activity against methicillin-resistant Staphylococcus aureus 4591 clinical isolates after 24 hrs by microdilution method; type: functional; conditions: Staphylococcus aureus, 4591, 24 h
[8] = test system: Staphylococcus haemolyticus; assay: Antibacterial activity against fluoroquinolne-resistant Staphylococcus haemolyticus 16568 after 24 hrs by microdilution method; type: functional; conditions: Staphylococcus haemolyticus, 16568, 24 h
[9] = test system: Staphylococcus epidermidis; assay: Antibacterial activity against Staphylococcus epidermidis 8700/B after 24 hrs by microdilution method; type: functional
Enterococcus faecium = assay: Antibacterial activity against vancomycin-resistant Enterococcus faecium 419/ana clinical isolates after 24 hrs by microdilution method; type: functional
Salmonella enteritidis = assay: Antibacterial activity against Salmonella enteritidis S2-25 after 24 hrs by microdilution method; type: functional, Salmonella enterica subsp. enterica serovar Enteritidis; conditions: Salmonella enterica, S2-25, 24 h
Acinetobacter baumannii = assay: Antibacterial activity against Acinetobacter baumannii A3-08 after 24 hrs by microdilution method; type: functional; conditions: A3-08, 24 h
[10] = test system: Stenotrophomonas maltophilia; assay: Antibacterial activity against Stenotrophomonas maltophilia S2-23 after 24 hrs by microdilution method; type: functional; conditions: S2-23, 24 h
Burkholderia multivorans = assay: Antibacterial activity against Burkholderia multivorans after 24 hrs by microdilution method; type: functional
Bacillus subtilis [11] = assay: Antibacterial activity against Bacillus subtilis assessed as inhibition of DNA synthesis at 2 mg/L after 50 mins by [3H]thymidine incorporation assay; type: functional
Bacillus subtilis [12] = assay: Antibacterial activity against Bacillus subtilis assessed as inhibition of RNA synthesis at 2 mg/L after 50 mins by [3H]-uridine incorporation assay; type: functional
Bacillus subtilis [13] = assay: Antibacterial activity against Bacillus subtilis assessed as inhibition of peptidoglycan synthesis at 2 mg/L after 50 mins by [3H]-N-acetylglucosamine incorporation assay; type: functional
Bacillus subtilis [14] = assay: Antibacterial activity against Bacillus subtilis assessed as inhibition of plasma membrane lipids synthesis at 2 mg/L after 50 mins by [3H]-sodium acetate incorporation assay; type: functional
Bacillus subtilis [15] = assay: Antibacterial activity against Bacillus subtilis assessed as inhibition of protein synthesis at 2 mg/L after 50 mins by [35S]-methionine incorporation assay; type: functional
Lipid bilayer [16] = assay: Binding affinity to DOPG large unilamellar vesicle assessed as carboxyfluorescein leakage at 10 mg/L after 20 secs by fluorescence-based assay relative to control
Lipid bilayer [17] = assay: Binding affinity to DOPG large unilamellar vesicle assessed as carboxyfluorescein leakage at 10 ug/ml after 20 secs by fluorescence-based assay relative to control
Lipid bilayer [18] = assay: Binding affinity to DOPC large unilamellar vesicle assessed as carboxyfluorescein leakage at 10 to 20 ug/ml after 20 secs by fluorescence-based assay relative to control
BJ = assay: Cytotoxicity against human BJ cells assessed as reduction in cell viability after 48 hrs by ATPlite reagent based assay
TERT-RPE1 [19] = assay: Cytotoxicity against human RPE1 cells assessed as reduction in cell viability after 48 hrs by ATPlite reagent based assay; conditions: tert-rpe1, 48 h
HepG2 [20] = assay: Cytotoxicity against human HepG2 cells assessed as reduction in cell viability after 48 hrs by ATPlite reagent based assay; conditions: hepg2, 48 h
TERT-RPE1 [21] = assay: Induction of apoptosis in human RPE1 cells assessed as caspase 3/7 activation up to 80 mg/L after 4 hrs by caspase-Glo 3/7 luminescent assay; type: cell-based; conditions: tert-rpe1, 4 h
HepG2 [22] = assay: Induction of apoptosis in human HepG2 cells assessed as caspase 3/7 activation up to 80 mg/L after 4 hrs by caspase-Glo 3/7 luminescent assay; type: cell-based; conditions: hepg2, 4 h
TERT-RPE1 [23] = assay: Cytotoxicity against human RPE1 cells assessed as disruption of cell membrane integrity after 4 hrs by CytoTox-ONE-based assay; conditions: tert-rpe1, 4 h
HepG2 [24] = assay: Cytotoxicity against human HepG2 cells assessed as disruption of cell membrane integrity after 4 hrs by CytoTox-ONE-based assay; conditions: hepg2, 4 h
[25] = Apparent permeability across apical to basolateral side in human Caco2 cells at 200 uM after 3 hrs by LC-MS analysis; type: ADME, cell-based; conditions: caco-2, 3 h
[26] = Chemical stability of compound at 50 to 500 mg/L at pH 0.18 after 24 hrs at room temperature by LC-MS analysis; type: physicochemical; conditions: buffer, pH 0.18, 24 h
[27] = Chemical stability of compound at 50 to 500 mg/L at pH 5 after 24 hrs at room temperature by LC-MS analysis; type: physicochemical; conditions: buffer, pH 5, 24 h
[28] = Chemical stability of compound at 50 to 500 mg/L at pH 8.8 after 24 hrs at room temperature by LC-MS analysis; type: physicochemical; conditions: buffer, pH 8.8, 24 h
TERT-RPE1 [29] = assay: Cytotoxicity against human RPE1 cells assessed as disruption of cell membrane integrity at >80 mg/L after 4 hrs by CytoTox-ONE-based assay; conditions: tert-rpe1, 4 h
[30] = Chemical stability of compound at 50 to 500 mg/L at pH 0.18 after 24 hrs at 37 degC by LC-MS analysis; type: physicochemical; conditions: buffer, pH 0.18, 24 h
[31] = Chemical stability of compound at 50 to 500 mg/L at pH 5 after 24 hrs at 37 degC by LC-MS analysis; type: physicochemical; conditions: buffer, pH 5, 24 h
[32] = Chemical stability of compound at 50 to 500 mg/L at pH 8.8 after 24 hrs at 37 degC by LC-MS analysis; type: physicochemical; conditions: buffer, pH 8.8, 24 h
J774.A1 = assay: Cytotoxicity against mouse J774A.1 cells assessed as damage to cell membrane by measuring propidium iodide intake at 5 uM by spectrofluorometric analysis; type: cell-based; conditions: j774.a1, 5 µM
Lipid bilayer [33] = assay: Binding affinity to DOPG large unilamellar vesicle assessed as increase in fluorescence intensity at 5 mg/L after 10 mins by fluorescence assay relative to control
Lipid bilayer [34] = assay: Binding affinity to DOPG large unilamellar vesicle assessed as Stern-Volmer quenching constant after 10 mins in presence of potassium iodide by fluorescence assay (reference value: 47.22 +/- 1.58 no_unit)
Lipid bilayer [35] = assay: Binding affinity to DOPG large unilamellar vesicle assessed as blue shift in emission maximum at 5 mg/L after 10 mins by fluorescence assay relative to control
Pseudomonas aeruginosa [36] = assay: microbe, parasite or virus in culture; conditions: CCM 3955, 24 h

Structure (SMILES): CCCCCCCCCCCCCCCOP(=O)(CCN(CCCN)CCCN)OC[C@H]1O[C@@H](n2ccc(=O)[nH]c2=O)[C@H](O)[C@@H]1O (some centres undefined)
- MIC (Escherichia coli [1]): 6.25 µg/mL (≈ 9.25 µM)
- MIC (Pseudomonas aeruginosa [2]): 3.13 µg/mL (≈ 4.63 µM)
- MIC (Enterococcus faecalis): 50 µg/mL (≈ 74 µM)
- MIC (Staphylococcus aureus [3]): 6.25 µg/mL (≈ 9.25 µM)
- MIC (Bacillus subtilis [4]): 3.13 µg/mL (≈ 4.63 µM)
- MIC (Streptococcus agalactiae): 1.56 µg/mL (≈ 2.31 µM)
- MIC (Escherichia coli [5]): 25 µg/mL (≈ 37 µM)
- MIC (Pseudomonas aeruginosa [6]): 6.25 µg/mL (≈ 9.25 µM)
- MIC (Staphylococcus aureus [7]): 1.56 µg/mL (≈ 2.31 µM)
- MIC [8]: 3.13 µg/mL (≈ 4.63 µM)
- MIC [9]: 3.13 µg/mL (≈ 4.63 µM)
- MIC (Enterococcus faecium): 6.25 µg/mL (≈ 9.25 µM)
- MIC (Salmonella enteritidis): 6.25 µg/mL (≈ 9.25 µM)
- MIC (Acinetobacter baumannii): 3.13 µg/mL (≈ 4.63 µM)
- MIC [10]: 3.13 µg/mL (≈ 4.63 µM)
- MIC (Burkholderia multivorans): 50 µg/mL (≈ 74 µM)
- inhibition (Bacillus subtilis [11]): inactive
- inhibition (Bacillus subtilis [12]): inactive
- inhibition (Bacillus subtilis [13]): inactive
- inhibition (Bacillus subtilis [14]): inactive
- inhibition (Bacillus subtilis [15]): inactive
- Activity (Lipid bilayer [16]): Active
- fold change (FC) (Lipid bilayer [17]): 25
- Activity (Lipid bilayer [18]): 20 to 35%
- Activity (BJ): 29.1 mg/L
- Activity (TERT-RPE1 [19]): 34.8 mg/L
- Activity (HepG2 [20]): 33.2 mg/L
- Activity (TERT-RPE1 [21]): Non-Toxic
- Activity (HepG2 [22]): Non-Toxic
- Activity (TERT-RPE1 [23]): 73.8 mg/L
- Activity (HepG2 [24]): Non-Toxic
- permeability [25]: Impermeable
- Stability [26]: Stable
- Stability [27]: Stable
- Stability [28]: Stable
- Activity (TERT-RPE1 [29]): Non-Toxic
- Stability [30]: Stable
- Stability [31]: Stable
- Stability [32]: Stable

Structure (SMILES): CC[C@H](C)[C@H](NC(=O)CN)C(=O)NCC(=O)N[C@@H](C)C(=O)N[C@H](C(=O)N[C@@H](CC(C)C)C(=O)N[C@@H](CCCCN)C(=O)N[C@H](C(=O)N[C@@H](CC(C)C)C(=O)N[C@H](C(=O)N[C@H](C(=O)NCC(=O)N[C@@H](CC(C)C)C(=O)N1CCC[C@H]1C(=O)N[C@@H](C)C(=O)N[C@@H](CC(C)C)C(=O)N[C@H](C(=O)N[C@@H](CO)C(=O)N[C@@H](Cc1c[nH]c2ccccc12)C(=O)N[C@H](C(=O)N[C@@H](CCCCN)C(=O)N[C@@H](CCCNC(=N)N)C(=O)N[C@@H](CCCCN)C(=O)N[C@@H](CCCNC(=N)N)C(=O)N[C@@H](CCC(N)=O)C(=O)N[C@@H](CCC(N)=O)C(N)=O)[C@@H](C)CC)[C@@H](C)CC)[C@@H](C)O)[C@@H](C)O)C(C)C)C(C)C [MELITTIN]
- Activity (J774.A1): Toxic

- fold change (FC) (Lipid bilayer [33]): 3.5
- KSV (Lipid bilayer [34]): 0.97
- Activity (Lipid bilayer [35]): 25 nm
Structure (SMILES): CCCCCCCCCCCCCCOP(=O)(CCN(CCCN)CCCN)OC[C@H]1O[C@@H](n2cc(-c3ccco3)c(=O)[nH]c2=O)[C@H](O)[C@@H]1O (some centres undefined)

Structure (SMILES): O=C(O)c1cn(C2CC2)c2cc(N3CCNCC3)c(F)cc2c1=O [CIPROFLOXACIN]
- MIC (Pseudomonas aeruginosa [36]): 4 µg/mL (≈ 12.1 µM)
